We go through five compounds from US20140243351A1, “DRUG FOR THE TREATMENT OF ALLERGIC RHINITIS COMPRISING PGD2 ANTAGONIST AND HISTAMINE ANTAGONIST” (Shionogi & Co., Ltd., priority 2011, published 2014).

Assay [1] has as its system patients with seasonal allergic rhinitis. The experiment in a line: Evaluation test on pharmacological efficacy on patients with seasonal allergic rhinitis (daytime nasal symptom scores).
Method: Each of the groups was asked to take each preparation in accordance with the following medication schedule. Thereafter, each of the patients was daily evaluated on daytime nasal symptoms, e.g. sneezing attacks, nasal discharge, nasal congestion, and nasal itching, in accordance with the following evaluation criteria. The results were analyzed. The lower the nasal symptom scores, more alleviated the nasal symptoms.
The medication was scheduled for a total of about 6 to 18 weeks, including a screening period of from 0 days to 12 weeks, a placebo introducing period of from 4 to 7 days, an ingestion period for each preparation of 4 weeks, and a post-observation period of 1 week.
Here, the evaluation criteria for sneezing, nasal discharge, and nasal congestion were conducted in 5-ranks from scores 0 to 4, and the evaluation criterion for nasal itching was conducted in 4-ranks of scores 0 to 3.
As to the nasal symptoms evaluated by each patient, average scores/day at time points 1, 2, 3, and 4 weeks after the administration, and the week just before the administration (for example, at a time point of 2 weeks after the administration refers to a one-week period from one week after the administration to the second week) were calculated, and changes since the start of the test were calculated and used in analysis. Here, in the between-group comparison distribution of the background factors, Fisher's exact test was used for nominal scale data, and Kruskal-Wallis test was used for continuous data or ordinal scale data. In both tests, the significance levels were set at 0.15 on both sides. In the analyses of nasal symptom items, the between-group comparison according to covariance analysis of an average change after two weeks from the administration, the between-group comparison according to covariance analysis of a change on a weekly basis, the between-group comparison of a change on a weekly basis using a linear model, and the between-group comparison according to chi-square test of improvement rate on a weekly basis were conducted. In all the comparisons, the significance level was set at 0.05 on both sides. In addition, as to the changes of nasal symptoms on a weekly basis, the between-group comparison according to covariance analysis for changes on a weekly basis using a linear model was conducted. Further, the between-group comparison according to chi-square test of improvement rate of each of the daytime nasal symptoms on a weekly basis was conducted. In the covariance analysis for a change on a weekly basis, in cases where data each week were not measured, the data were supplemented according to Last Observation Carried Forward (LOCF) method.
For assay [2], the system named is guinea pig rhinitis model induced with PGD2 and histamine. Put plainly: Evaluation Test 3, guinea pig rhinitis model induced with PGD2 and histamine, nasal airway resistance. Type of assay: in vivo. Conditions: oral, each agent at 10 mg/kg; about 10 minutes after PGD2 + histamine challenge. The source says: The pharmacological efficacy evaluation was made using 9 to 12 week-old male Harley guinea pigs in the following manner. Specifically, the guinea pigs were divided into the following groups: Group 1: Control Group (a group administered with a medium alone to a guinea pig); […] [table]

In assay [3] the test system is guinea pig rhinitis model. The experiment in a line: Evaluation Test 1, guinea pig rhinitis model (OVA), nasal airway resistance, Formula (I) + fexofenadine hydrochloride. The note with it: single, 20 minutes after OVA challenge. The format is in vivo. Here is the method:
Guinea pig rhinitis models were generated by causing rhinitis-inflammation in 5 to 6 week-old male Harley guinea pigs in the following manner. Concretely, on day 0, the guinea pigs were intraperitoneally administered with cyclophosphamide diluted with physiological saline at 30 mg/kg. Two days later (on day 2), a mixed solution of aluminum hydroxide gel (10 mg), ovalbumin (OVA) (1 mg) and physiological saline was intraperitoneally administered to establish active sensitization. Thereafter, on day 9, a 1% OVA solution dissolved in physiological saline was intranasally challenged by 20 μL each to both the nostrils. Further, on day 16, a 2% OVA solution dissolved in physiological saline was intranasally challenged by 10 μL each to both the nostrils, thereby generating guinea pig rhinitis models that caused rhinitis-inflammation. Here, a control group that serves as a control was intranasally challenged by physiological saline in place of intranasally challenging by the OVA solution.
Specifically, prepared were the following: […]
Next, on day 23, a test substance listed in Table 7 was orally administered using a 0.5% methylcellulose (MC) solution as a medium, and one hour thereafter a 2% OVA solution dissolved in physiological saline was intranasally challenged by 10 μL each to both the nostrils (Group 1 was intranasally challenged by physiological saline in place of intranasal challenge by the OVA solution), and the nasal airway resistance was evaluated and analyzed. […] Here, nasal airway resistance (nRaw) is an average of specific airway resistance (sRaw) of 200 times or more breathing, and the analyzed values used in the comparisons of pharmacological efficacy are expressed as a percent change based on the nasal airway resistance measured before the intranasal challenge (100%) (IAR: immediately airway response). In addition, the between-group comparison was carried out according to one-sided t test, and the suppression percentage to Group 2 (Vehicle Group) was calculated by the following formula: […]

Assay [4] deals with seasonal allergic rhinitis patients. The experiment in a line: Clinical test (Ph 2, protocol 077) on seasonal allergic rhinitis, Non-Patent Publication 1. The format is in vivo, human. Conditions: beclomethasone versus loratadine, change per symptom from placebo. From the text:
For example, Journal of Asthma, 46, 878-883, 2009 (Non-Patent Publication 1) describes clinical test results (Ph 2, protocol 077) on seasonal allergic rhinitis for a patient group administered with montelukast as an LT receptor antagonist, a patient group administered with loratadine as a histamine H1 receptor antagonist, and a patient group administered with beclomethasone as an intranasal steroid (see Table 3 in the publication). Here, the nasal symptoms, i.e. sneezing, nasal discharge, nasal congestion, and nasal itching, after two weeks since the start of the oral administration are scored to be evaluated.
Furthermore, Table 3 of Non-Patent Publication 1 describes clinical test results on seasonal allergic rhinitis for an intranasal steroid agent beclomethasone and a histamine H1 receptor antagonist loratadine. According to the publication, it can be seen that a change in scores of nasal symptoms, i.e. sneezing, nasal discharge, nasal congestion, and nasal itching, after two weeks since the start of the oral administration, per symptom from the placebo group is such that the change in a loratadine group is 0.31, i.e. a difference between 0.53 and 0.22, and that the change in a beclomethasone group is 0.48, i.e. a difference between 0.70 and 0.22. In other words, it can be seen that the intranasal steroid agent was 1.55 times effective of the histamine H1 receptor antagonist. […]

Assay [5] shares this test system. Conditions: after two weeks, cited from earlier work; for change in nasal symptom scores per symptom from the placebo group: sneezing, nasal discharge, nasal congestion, nasal itching.
Assay [6] shares this test system. The note with it: after two weeks; montelukast 10 mg, loratadine 10 mg, combination 10 mg each; cited from earlier work.
Assay [7] has the same test system. The note with it: after two weeks; cited from earlier work.
[8] abbreviates: after two weeks from administration.

Where two headings read alike, the source gives them in different places. Marks after values point to notes of the source that are not given here.

Take `Cl.Cl.O=C(O)COCCN1CCN(C(c2ccccc2)c2ccc(Cl)cc2)CC1` (racemic) [Cetirizine Hydrochloride, 2-(2-{4-[(RS)-(4-chlorophenyl)phenylmethyl]piperazin-1-yl}ethoxy)acetic acid dihydrochloride]: in assay [1] (setting [8]), the “Change in Nasal Congestion Scores, Difference with Placebo Group” value is −0.13; the “Change in Nasal Discharge Scores, Difference with Placebo Group” value was −0.31**; the “Change in Nasal Itching Scores, Difference with Placebo Group” value is given as −0.28**; the “Change in Sneezing Scores, Difference with Placebo Group” value is listed as −0.34***. For the same compound, the “Change in Total of Three Nasal Symptom Scores, Difference with Placebo Group” value (shortened to “Change in Total … Difference with Placebo Group”) in assay [1] (after two weeks from administration, dihydrochloride) is −0.73**. Also, the “Change in Total … Difference with Placebo Group” value in assay [1] (after two weeks from administration, listed as cetirizine, dihydrochloride) is recorded as 0.73. Moreover, the “change per symptom (total of three nasal symptom scores, from the placebo group)” value in assay [1] (after two weeks, worked out from Table 2) was found to be 0.24. Moreover, in assay [2], the “suppression percentage of nasal airway resistance increase” value stood at 20%.

Consider `CC(C)(C(=O)O)c1ccc(C(O)CCCN2CCC(C(O)(c3ccccc3)c3ccccc3)CC2)cc1.Cl` (racemic) [fexofenadine hydrochloride, (±)-2-{4-[1-hydroxy-4-[4-(hydroxydiphenylmethyl)piperidino]butyl]phenyl}-2-methylpropanoic acid monohydrochloride], for which the “suppression percentage of nasal airway resistance increase” value in assay [3] (Group 5, fexofenadine hydrochloride 20 mg/kg oral) was determined as 15%.

On to `CC(C)Oc1ccc(S(=O)(=O)N2CCN(c3ccc(-c4ncco4)c(OCC(=O)O)c3)CC2)cc1` [Formula (I), [2-(oxazol-2-yl)-5-(4-{4-[(propan-2-yl)oxy]phenylsulfonyl}piperazin-1-yl)phenoxy]acetic acid], for which the “suppression percentage of nasal airway resistance increase” value in assay [3] (Group 3, Formula (I) 1 mg/kg oral) turned out to be 21%. Also, the “suppression percentage of nasal airway resistance increase” value in assay [3] (Group 4, Formula (I) 10 mg/kg oral) stood at 47%. Besides, in assay [1] (setting [8]), the “Change in Nasal Congestion Scores, Difference with Cetirizine Hydrochloride Group” value was −0.03; the “Change in Nasal Congestion Scores, Difference with Placebo Group” value is −0.16*; the “Change in Nasal Discharge Scores, Difference with Cetirizine Hydrochloride Group” value is listed as 0.13; the “Change in Nasal Discharge Scores, Difference with Placebo Group” value is given as −0.19**. In assay [1] (setting [8]), the “Change in Nasal Itching Scores, Difference with Cetirizine Hydrochloride Group” value is given as 0.21**; the “Change in Nasal Itching Scores, Difference with Placebo Group” value was −0.06; the “Change in Sneezing Scores, Difference with Cetirizine Hydrochloride Group” value is 0.23**; the “Change in Sneezing Scores, Difference with Placebo Group” value is given as −0.11. Moreover, in assay [1] (setting [8]), the “Change in Total of Three Nasal Symptom Scores, Difference with Cetirizine Hydrochloride Group” value is given as 0.28 and the “Change in Total … Difference with Placebo Group” value is listed as −0.45*. For the same compound, the “suppression percentage of nasal airway resistance increase” value in assay [2] stood at 32%.

On to `C[C@H]1C[C@H]2[C@@H]3CCC4=CC(=O)C=C[C@]4(C)[C@@]3(Cl)[C@@H](O)C[C@]2(C)[C@@]1(O)C(=O)CO` [beclomethasone], for which the “effect of intranasal steroid agent relative to histamine H1 receptor antagonist” value in assay [4] was 1.55 times. In addition, in assay [5], the “change in nasal symptom scores per symptom since the start of the administration” value is recorded as 0.70 and the “change in nasal symptom scores per symptom from the placebo group” value is given as 0.48.

With `CCOC(=O)N1CCC(=C2c3ccc(Cl)cc3CCc3cccnc32)CC1` [loratadine, ethyl 4-(8-chloro-5,6-dihydro-11H-benzo[5,6]cyclohepta[1,2-b]pyridin-11-ylidene)-1-piperidinecarboxylate], in assay [6], the “change per symptom of the nasal symptom scores since the start of the administration” value is listed as 0.34 and the “change per symptom of the nasal symptom scores, based on the placebo group” value was 0.09. For the same compound, in assay [7], the “change per symptom of the nasal symptom scores since the start of the administration” value is given as 0.40 and the “change per symptom of the nasal symptom scores, based on the placebo group” value is listed as 0.09. Moreover, in assay [5], the “change in nasal symptom scores per symptom since the start of the administration” value was 0.53 and the “change in nasal symptom scores per symptom from the placebo group” value is reported as 0.31.
